From ChEMBL document CHEMBL1201862, “PubChem BioAssay data set” (2004) come the findings set out here.

Among the test systems are A498; ACHN; CCRF-CEM; EKVX; HCC 2998; HCT-116; HOP-62; K562; KM12; LOX IMVI; M14; Malme-3M; NCI-H522; OVCAR-4; SK-MEL-28; SN12C; SNB-75; 786-0; A549; OVCAR-8.
What all share (experiment): NCI anticancer screen, dose series, 48 h

Each structure is given as a SMILES string.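 Grown in 96-well plates, cells were treated for 48 hours with each compound at five concentrations. Insufficient inhibition: endpoint recorded as highest concentration tested. GI50 marks 50% less growth.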 Activity calls are given as the source filed them. Rule as the data show it: active = GI50 up to about 1.1 µM and inactive = higher.

For the compound `Cc1cc(C)nc(NS(=O)(=O)c2ccc(NC(=O)c3cccc4c(Nc5ccc(S(=O)(=O)Nc6cc(C)on6)cc5)c5ccccc5nc34)cc2)n1`, the GI50 was 23.8 µM (inactive) in the assay on A498; 38.6 µM (inactive) with ACHN; 28.8 µM (inactive) in the assay on CCRF-CEM; 24.9 µM (inactive) in the assay with EKVX; 14.8 µM (inactive) with HCC 2998; 25.9 µM (inactive) in the assay on HCT-116. The GI50 in the assay with HOP-62 was 19.1 µM (inactive); in the assay on K562, 28.7 µM (inactive); with KM12 it was 16.4 µM (inactive); in the assay on LOX IMVI, 18.9 µM (inactive); with M14 it was 22.7 µM (inactive); with Malme-3M, 18 µM (inactive). Further, the GI50 is 16.3 µM (inactive) with NCI-H522; 23.2 µM (inactive) with OVCAR-4; 20.7 µM (inactive) in the assay on SK-MEL-28; 23 µM (inactive) in the assay on SN12C; 23.3 µM (inactive) with SNB-75.
Turning to `CC1(Br)S(=O)(=O)OCCOS1(=O)=O`, the GI50 in the assay on 786-0, in the assay on A498, with A549, in the assay on ACHN, in the assay on CCRF-CEM and in the assay with EKVX was > 100 µM (inactive) in each case. Moreover, the GI50 in the assay with HCC 2998, with HCT-116, in the assay on HOP-62, in the assay on K562, with LOX IMVI and with M14 was > 100 µM (inactive) throughout. Also, the GI50 in the assay with Malme-3M, in the assay on NCI-H522, with OVCAR-4, in the assay with OVCAR-8, in the assay on SK-MEL-28 and with SN12C was > 100 µM (inactive) throughout. Moreover, the GI50 in the assay on SNB-75 is > 100 µM (inactive).
In the case of `O=c1cc(O)c1=O`, the GI50 with A498, with A549, in the assay with ACHN, with CCRF-CEM, in the assay on EKVX and in the assay on HCC 2998 was > 100 µM (inactive) in each case. Further, the GI50 in the assay with HCT-116, in the assay on HOP-62, in the assay on K562, in the assay with KM12, with LOX IMVI and in the assay with M14 was > 100 µM (inactive) each time. Moreover, the GI50 in the assay on Malme-3M, in the assay on NCI-H522, in the assay on OVCAR-4, in the assay on OVCAR-8, in the assay on SK-MEL-28 and in the assay on SN12C was > 100 µM (inactive) each time. Further, the GI50 in the assay on SNB-75 was > 100 µM (inactive).
As to `O=C1C(Cl)C2(CC(/C=C/c3cccs3)=NN2c2cccc(S(=O)(=O)O)c2)N1c1nc2ccccc2s1` (stereo not given), the GI50 was 94.6 µM (inactive) with 786-0; 76.2 µM (inactive) with A498; 42 µM (inactive) in the assay with A549; 58.3 µM (inactive) in the assay on ACHN; 20.1 µM (inactive) with CCRF-CEM; 24.2 µM (inactive) in the assay with EKVX. The GI50 was > 100 µM (inactive) in the assay on HCC 2998; > 100 µM (inactive) in the assay on HCT-116; 35.6 µM (inactive) in the assay on K562; > 100 µM (inactive) in the assay with KM12; 15.1 µM (inactive) with LOX IMVI; 99.3 µM (inactive) in the assay with M14. Besides, the GI50 in the assay with Malme-3M was > 100 µM (inactive); in the assay with NCI-H522, 18.2 µM (inactive); with OVCAR-4, 71.3 µM (inactive); in the assay on OVCAR-8 it was 41.7 µM (inactive); in the assay with SK-MEL-28, > 100 µM (inactive); with SN12C it was > 100 µM (inactive). In addition, in the assay with SNB-75, the GI50 is 49.9 µM (inactive).
For `C#CCN(Cc1ccc2nc(-c3ccccc3)c(Cl)nc2c1)c1ccc(F)cc1`, the GI50 in the assay with 786-0 is > 100 µM (inactive); with A498, > 100 µM (inactive); in the assay with A549 it was > 100 µM (inactive); with ACHN it was 71.9 µM (inactive); in the assay on CCRF-CEM it was 17.5 µM (inactive); in the assay on EKVX, > 100 µM (inactive). For the same compound, the GI50 in the assay on HCC 2998, with HCT-116, with HOP-62, with KM12, in the assay on LOX IMVI and in the assay on M14 was > 100 µM (inactive) throughout. In addition, the GI50 in the assay on Malme-3M is > 100 µM (inactive); in the assay with NCI-H522, 40.6 µM (inactive); with OVCAR-4, 59.8 µM (inactive); with OVCAR-8, > 100 µM (inactive); with SK-MEL-28, > 100 µM (inactive); with SN12C, > 100 µM (inactive). Moreover, the GI50 in the assay with SNB-75 was > 100 µM (inactive).
For `NCC(Cl)C(O)c1c[nH]c(N)n1` (stereo not given), the GI50 was 0.147 µM (active) in the assay on A498; 0.136 µM (active) with A549; 1.58 µM (inactive) in the assay with CCRF-CEM; 0.502 µM (active) in the assay on EKVX; 0.625 µM (active) with HCC 2998; 0.392 µM (active) with HCT-116. The GI50 was 0.371 µM (active) with HOP-62; 2.38 µM (inactive) with K562; 0.117 µM (active) in the assay with KM12; 1.24 µM (inactive) with LOX IMVI; 1.43 µM (inactive) with Malme-3M; 1.93 µM (inactive) in the assay on NCI-H522. The GI50 in the assay on OVCAR-4 was 0.668 µM (active); with OVCAR-8 it was 0.546 µM (active); with SK-MEL-28 it was 3.61 µM (inactive); in the assay with SN12C it was 2.12 µM (inactive); with SNB-75, 1.84 µM (inactive).
Turning to `Cn1c(=O)c(Cl)c(N=[N+]=[N-])c2ccccc21`, the GI50 in the assay with A498 is > 100 µM (inactive); in the assay with A549, 94.4 µM (inactive); with ACHN, 85.7 µM (inactive); in the assay on CCRF-CEM, 55.7 µM (inactive); in the assay on EKVX it was 22.1 µM (inactive); in the assay with HCC 2998 it was > 100 µM (inactive). The GI50 was 93.8 µM (inactive) in the assay with HCT-116; > 100 µM (inactive) in the assay on HOP-62; 47.1 µM (inactive) in the assay with K562; 0.0324 µM (active) in the assay on KM12; 55.7 µM (inactive) in the assay with LOX IMVI; 68.9 µM (inactive) in the assay with Malme-3M. Further, the GI50 with NCI-H522 was 74.3 µM (inactive); in the assay on OVCAR-4, 55.7 µM (inactive); in the assay on OVCAR-8, > 100 µM (inactive); in the assay on SK-MEL-28 it was > 100 µM (inactive); in the assay on SN12C it was 56.5 µM (inactive); in the assay on SNB-75 it was 25.8 µM (inactive).
As for `COc1cc(C2c3cc4c(cc3[C@@H](Nc3cccc(CO)c3)C3COC(=O)[C@H]23)OCO4)cc(OC)c1O` (stereo not given in full), the GI50 in the assay on A498 is 0.293 µM (active); in the assay with A549 it was < 0.0281 µM (active); in the assay with CCRF-CEM, 0.078 µM (active); with EKVX, 3.31 µM (inactive); with HCC 2998, 1.73 µM (inactive); in the assay with HCT-116, 0.624 µM (active). For the same compound, the GI50 is 0.156 µM (active) in the assay on HOP-62; 0.178 µM (active) in the assay on K562; 1.72 µM (inactive) in the assay with KM12; 0.438 µM (active) in the assay with LOX IMVI; 1.56 µM (inactive) in the assay with Malme-3M; 1 µM (active) in the assay on NCI-H522. The GI50 is 6.84 µM (inactive) in the assay with OVCAR-4; 1.33 µM (inactive) in the assay with OVCAR-8; 2.24 µM (inactive) with SK-MEL-28; 0.558 µM (active) in the assay on SN12C; 0.94 µM (active) in the assay on SNB-75.
